In patent US9370511B2, “Morphinan-derivatives for treating diabetes and related disorders” (priority 2011, dated 2016):
“Also recorded” adds a separate entry of the source.

What was measured:
human pancreatic islets = assay: Insulin secretion from human pancreatic islets at low and high glucose; type: cell-based; details: 1 μM; low glucose 2 mM vs high glucose 20 mM
Procedure: (§1) Mouse pancreatic islets were treated with a low, non-stimulatory glucose concentration (2.5 mM) or a high, stimulatory glucose concentration (25 mM) in the absence or presence of 1 μM or 10 μM dextrorphan. Insulin secretion was determined as percent of […] glucose control, and values are expressed as means+/−SD (N=3). The asterisks (*) indicate p values smaller than 0.05 in Student's t-tests.
Example 1 was repeated but the mouse pancreatic islets were replaced by human pancreatic islets.
Low Glucose (2 mM); High Glucose (20 mM); the asterisks (*) indicate p values smaller than 0.05 in Student's t-tests.

diabetics = details: long-term experience; cited from earlier work
mouse pancreatic islets = assay: Insulin secretion from mouse pancreatic islets at low and high glucose; type: cell-based; details: comparison of DXO, DXM and LEV
Procedure: as §1
Low Glucose (2.5 mM); High Glucose (25 mM); p<0.05 (Student's t-Test), N=3.
Example 1 was repeated in order to compare dextrorphan, dextromethorphan, and levorphanol with one another.

[1] = system: db/db mouse (an animal model for human type 2 diabetes mellitus); assay: Long-term treatment of db/db mice with dextromethorphan in drinking water; type: in vivo
Description: Therefore, long-term treatment with dextromethorphan is beneficial for beta cell function and blood glucose control in a mouse model for human type 2 diabetes mellitus.

[2] = system: male subjects with type 2 diabetes mellitus; assay: Clinical trial, oral single dose followed by oral glucose tolerance test (OGTT); type: in vivo, human
Procedure: The study was designed as a randomized, double-blind, placebo-controlled crossover study to investigate the glucose lowering effect of oral single doses of DXM 270 mg (FIG. 10) and DXM 60 mg (FIG. 11) vs. placebo in subjects with T2DM following an oral glucose tolerance test (OGTT). DXM 270 mg, DXM 60 mg or placebo was administered orally at 0 minutes. OGTT was started at 60 minutes (75 g glucose orally). Blood glucose levels were measured at the indicated times. n=20 male with T2DM on a stable regimen of metformin monotherapy, between 45 and 70 years of age, with a BMI between 25 and 35 kg/m2, HbA1c between 7 and 8%. Student's t-test. *p=0.01, **p<0.001All values are means±SD.

[3] = system: painful diabetic neuropathy; details: in vivo; cited from earlier work
[4] = system: children with severe bacterial meningitis; details: 36 mg kg^−1 day^−1; two children, also on glucocorticoids; cited from earlier work
[5] = 3 mg/ml in drinking water, 8 weeks, compared to low dose 1 mg/ml

For `COc1ccc(Cl)cc1C(=O)NCCc1ccc(S(=O)(=O)NC(=O)NC2CCCCC2)cc1` [glibenclamide], the “insulin secretion, basal and glucose-stimulated” value (human pancreatic islets) was “increases both basal (2 mM glucose) and glucose-stimulated (20 mM glucose) insulin secretion”.
In the case of `CN(C)C(=N)N=C(N)N` [metformin], the “reduction of diabetes complications and mortality” value (diabetics) is given as “about 30%”.
With `CN1CC[C@]23CCCC[C@H]2[C@H]1Cc1ccc(O)cc13` [levorphanol] the “glucose-dependent insulin secretion, compared with levorphanol” value (mouse pancreatic islets) was “not the levorotatory (−) stereoisomer that mainly targets opioid receptors, increases glucose-dependent insulin secretion to a large extent”.
With `COc1ccc2c(c1)[C@]13CCCC[C@@H]1[C@H](C2)N(C)CC3` [dextromethorphan, (+)-3-methoxy-17-methyl-(9α,13α,14α)-morphinan] the “glucose-dependent insulin secretion, compared with levorphanol” value (mouse pancreatic islets) was “significantly more effective in inducing glucose-dependent insulin secretion than levorphanol”, the “glucose-dependent insulin secretion, compared with levorphanol” value (mouse pancreatic islets; listed as DXM) was “increase glucose-dependent insulin secretion from pancreatic islets to a significantly larger extent compared to LEV” and the “effectiveness of the low dose” value ([1]; 1 mg/ml in drinking water) was “ineffective”. For the same molecule, the beta cell area [1, 5] was “significantly larger”, the “insulin content of islets” value [1, 5] was “significantly increased; also recorded: contained significantly more insulin” and the “starving blood glucose levels” value [1, 5] was “significantly improved starving blood glucose levels; also recorded: lower blood glucose levels or better blood glucose control”. The “blood glucose levels during oral glucose tolerance test” value ([2]; 60 mg oral single dose vs placebo) was “too low a concentration”, the “starving blood glucose levels” value ([2]; 270 mg oral single dose) was “does not affect starving blood glucose levels” and the “blood glucose levels during oral glucose tolerance test” value ([2]; 270 mg oral single dose vs placebo) was “significantly lowers blood glucose levels after glucose uptake”. The hypoglycemic events ([2]; 20 patients, oral single doses) was “no hypoglycemic events were observed”, the “efficacy in painful diabetic neuropathy” value [3] was “effective in treating painful diabetic neuropathy” and the serious adverse event [4] was “developed an insulin dependent diabetes mellitus”.
